Experimental data: patent US10556860B2, “hTERT modulators and methods of use” (Arizona Board of Regents on Behalf of the University of …, priority 2015, dated 2020)

Tests used:
[1] = system: BCL2 mRNA in WT and G146A melanoma cells; test: qPCR of BCL2 mRNA in melanoma cells; type: cell-based, human; settings: 72 h
Experimental: (§1) Cell cultures. MCF7 and melanoma (UACC 383) cells were cultured in media of RPMI-1640 with 10% FBS and 1% penicillin/streptomycin. For melanoma cells UACC 2512, UACC 3090, UACC 1729, and UACC 2528, 20% FBS was included in the RPMI media instead of 10% FBS. Cells were incubated at 37° C. with 5% CO2.
(§2) qPCR. MCF7 and melanoma cells were treated with GTC365 and BRACO-19 for 72 h. Total RNA was extracted using an RNeasy mini-prep kit (Qiagen) and quantitated by measuring absorbance at 260 nm. cDNA was synthesized using a Takara PrimeScript™ RT Reagent Kit with gDNA eraser and then used as a template for qPCR. The qPCR was performed using Kapa Probe Fast qPCR Master Mix with ABI Taqman probes of hTERT (Hs00972656_m1), BCL2 (HS00608023_m1, FAM-labeled) or MYC (Hs00153408_m1), and GAPDH (Hs02758991_g1, VIC-labeled). The Ct values were measured by running Rotor-Gene Q, and the relative quantity of hTERT, BCL2, and MYC mRNA was obtained compared to GAPDH as an internal control.
(§3) To determine the cellular effect of GTC365 on proliferation as well as suppression of the activation of hTERT by G124A, G124/125A, G138/139A, and G146A mutants, melanoma cell lines were used alongside a WT cell line. All mutants increased the mRNA level of hTERT, compared to WT melanoma cells, in the 6.6-34-fold range. […]

[2] = target: WT 5-12 G-quadruplex of hTERT core promoter (FAM/TAMRA probe); test: FRET assay for compound screening and Kd, WT probe; type: binding, human
Experimental: (§4) FRET assay for compound screening and determination of Kd value. FRET probes of WT, G124/125A, and G146A of the 5-12 G-quadruplex were synthesized and labeled with FAM (Ex. 490 nm/Em. 520 nm) and TAMRA (Ex. 560 nm/Em. 580 nm) at each end by MGW Operon Inc. The WT probe (50 nM) was annealed in a buffer containing 10 mM Tris-HCl (pH 7.5) and 5 mM KCl by heating at 95° C. for 5 min and slowly cooling to room temperature. Compounds (50 μM) and probe were incubated for 1 h at room temperature. The same volume of DMSO served as a control. For Kd value determination, the WT, G124/125A, and G146A probes were annealed, and then several concentrations of compound were treated for 1 h at room temperature. Dose-dependent fluorescence intensity at 520 nm was measured by a microplate reader (BioTek Synergy HT). The data were corrected with the blank signal of buffer and compound. The relative fluorescence intensity compared to DMSO was used for binding curve fitting to determine Kd value using GraphPad Prism software.
(§5) The hTERT core promoter region includes 12 runs of consecutive guanines that form two G-quadruplexes in tandem on the G-rich strand. […] When the G-quadruplex is folded, two fluorophores are in proximity, which leads to a decrease in FAM fluorescence. […]

[3] = system: hTERT mRNA in melanoma cells carrying WT, G124A, G124/125A, G138/139A and G146A; test: qPCR of hTERT mRNA in melanoma cells (WT and mutants); type: cell-based, human; settings: WT and all mutant melanoma cells, 72 h, 1 μM
Experimental: as §1, §2, §3

[4] = target: G146A 5-12 G-quadruplex of hTERT core promoter; test: FRET assay for Kd, G146A probe; type: binding, human
Experimental: as §4, §5

SMILES: N=C(N)NCCCS(=O)(=O)Nc1ccc(Nc2c3ccccc3nc3cc([N+](=O)[O-])ccc23)cc1 [GTC365]
- mRNA level of BCL2 [1]: decreased
- Kd ([2]; WT probe, FAM- and TAMRA-labeled oligomer): ~400 nM
- reduction of fluorescence intensity (FRET) ([2]; compounds 50 μM, WT probe 50 nM, 10 mM Tris-HCl, 5 mM KCl, 1 h): 94%
- decrease in the mRNA level of hTERT [3]: 25%
- Kd value higher than WT and G124/125A [4]: 1.5 fold
